Measurements as given in paper PMC4890880 (ACS infectious diseases, 2016).
Where two headings read alike, the source gives them in different places.

System: HepG2-A16-CD81EGFP cells
Conditions: for IC50: read-out: Tox_IC50, HepG2 cytotoxicity
[1] = sheet 2nd round, maximal inhibition in dose response
[2] = 2nd round, maximal inhibition in dose series

Compound	IC50 (sheet 2nd round) [µM]	Tox_max_inhibition (%) [1] [%]	IC50 (sheet "2nd round") [µM]	Tox_max_inhibition (%) (sheet "2nd round")	other results
COc1ccccc1NC(=O)Nc1ccc2c(c1)OC[C@@H](C)N(Cc1ccccc1Cl)C[C@@H](C)[C@H](OC)CN(C)C2=O [BRD-K28918058-001-01-5]	> 10	13	–	–	–
C[C@@H]1CN([C@H](C)CO)C(=O)c2c(c3ccccc3n2C)-c2ccccc2CO[C@@H]1CN(C)S(=O)(=O)c1ccc([N+](=O)[O-])cc1 [BRD-K04605557-001-01-2]	> 10	13	–	–	–
O=C(C[C@H]1C[C@@H]2c3cc(NS(=O)(=O)c4ccc(F)cc4)ccc3O[C@@H]2[C@@H](CO)O1)N1CCc2ccccc2C1 [BRD-K45723650-001-01-0]	–	–	> 10	-1	–
CC(C)NC(=O)N1[C@H](C#N)[C@H](c2ccc(C#CC3CCCCC3)cc2)[C@@H]1CO [BRD-K48864121-001-01-0]	–	–	–	–	Tox_max_inhibition (%) [2]: 54%; IC50 (2nd round, unit inferred): 9.68 µM
COc1ccccc1-c1ccc2c(c1)[C@@H]1[C@@H](CCN1C(=O)C1CCC1)[C@H](CO)N2 [BRD-K72492940-001-01-8]	> 10	18	–	–	–
O=C(C[C@H]1C[C@@H]2c3cc(NC(=O)c4ccc5c(c4)OCO5)ccc3O[C@@H]2[C@@H](CO)O1)NCc1ccc(Oc2ccccc2)cc1 [BRD-K34781184-001-01-6]	> 10	49	–	–	–
COc1ccccc1CN1C[C@@H](C)[C@H](OC)CN(C)C(=O)c2ccc(NC(=O)Nc3ccccc3OC)cc2OC[C@H]1C [BRD-K01898236-001-01-5]	–	–	–	–	Tox_max_inhibition (%) [2]: 9%; IC50 (2nd round, unit inferred): > 10 µM
N#C[C@H]1N[C@H](CO)[C@H]1c1ccc(C#Cc2ccccc2F)cc1 [BRD-K80648041-001-01-3]	> 10	11	–	–	–
CN1C(=O)c2cc(NC(=O)c3cccc(F)c3)ccc2OC[C@H]2O[C@H](CC(=O)NCC3CCCCC3)CC[C@H]21 [BRD-K31618614-001-02-1]	–	–	> 10	27	–
CCCNC(=O)N1[C@H](C#N)[C@H](c2ccc(C#Cc3ccc(F)cc3)cc2)[C@@H]1CO [BRD-K61371184-001-01-2]	–	–	> 10	22	–
COc1ccccc1C#Cc1ccc([C@H]2[C@@H](C#N)N(C(=O)C3CCCCC3)[C@H]2CO)cc1 [BRD-K87117984-001-01-1]	9.79	57	–	–	–
C[C@@H]1CCCCO[C@H](CN(C)S(=O)(=O)c2ccc(F)cc2)[C@@H](C)CN([C@H](C)CO)C(=O)c2cc(N(C)C)ccc2O1 [BRD-K38977317-001-01-6]	> 10	6	–	–	–
COc1ccc(-c2ccccc2[C@@H]2[C@@H](C#N)N(C(=O)NC3CCCCC3)[C@H]2CO)cc1 [BRD-K55353065-001-01-2]	–	–	–	–	Tox_max_inhibition (%) [2]: 11%; IC50 (2nd round, unit inferred): > 10 µM
C[C@H]1CCCCO[C@H](CN(C)S(=O)(=O)c2ccccc2)[C@@H](C)CN([C@@H](C)CO)C(=O)c2cc(NC(=O)Nc3ccc4c(c3)OCO4)ccc2O1 [BRD-K40819914-001-01-3]	–	–	> 10	8.49	–
COc1ccccc1NC(=O)N1C[C@@H]2N[C@H](C1)C2c1ccc(/C=C/c2ccccc2)cc1 (stereo partly shown) [BRD-K16425675-019-01-0]	> 10	9	–	–	–
C[C@H](CO)N1C[C@H](C)[C@H](CN(C)C(=O)Nc2ccc(C(F)(F)F)cc2)Oc2c(NC(=O)c3ccc(-c4nccs4)cc3)cccc2C1=O [BRD-K74949371-001-01-3]	> 10	6.39	–	–	–
CS(=O)(=O)N1C[C@@H]2N[C@H](C1)C2c1ccc(-c2ccccc2)cc1 (stereo partly shown) [BRD-K16971439-019-01-0]	> 10	5	–	–	–
CCCNC(=O)N1[C@H](C#N)[C@@H](c2ccccc2C2=CCCCC2)[C@@H]1CO [BRD-K70760948-001-01-2]	–	–	–	–	Tox_max_inhibition (%) [2]: 10%; IC50 (2nd round, unit inferred): > 10 µM
O=C(Nc1cc(F)ccc1F)N1CCCCN2[C@H](CO)[C@H](c3ccc(C4=CCCCC4)cc3)[C@@H]2C1 [BRD-K26542939-001-01-0]	> 10	16	–	–	–
OC[C@@H]1[C@H](c2ccc(-c3ccc(F)cc3)cc2)[C@@H](CNC2CCCC2)N1CCC(F)(F)F [BRD-K76178468-001-01-1]	> 10	22	–	–	–
C[C@H]1CN([C@@H](C)CO)C(=O)c2cccc(NC(=O)c3ccc(-c4nccs4)cc3)c2O[C@H]1CN(C)C(=O)Nc1ccc(C(F)(F)F)cc1 [BRD-K73614094-001-01-0]	–	–	–	–	Tox_max_inhibition (%) [2]: 12%; IC50 (2nd round, unit inferred): > 10 µM
CS(=O)(=O)N1[C@H](C#N)[C@H](c2ccc(C#Cc3cccc(F)c3)cc2)[C@H]1CO [BRD-K05470326-001-01-0]	–	–	> 10	10	–
C[C@@H]1CCCCO[C@@H](CN(C)C(=O)Nc2cccc3ccccc23)[C@H](C)CN([C@H](C)CO)C(=O)c2cc(NC(=O)CCC(F)(F)F)ccc2O1 [BRD-K78692607-001-01-1]	> 10	10	–	–	–
CN1C(=O)c2cc(NC(=O)c3ccc(C(F)(F)F)cc3)ccc2OC[C@H]2O[C@H](CC(=O)NCc3ccc4c(c3)OCO4)CC[C@@H]21 [BRD-K92009254-001-01-6]	–	–	8.97	53	–

Compound	IC50 (sheet 2nd round) [µM]	Tox_max_inhibition (%) [1] [%]	IC50 (sheet "2nd round") [µM]	Tox_max_inhibition (%) (sheet "2nd round")	other results
C[C@H](CO)N1C[C@H](C)[C@H](CN(C)S(=O)(=O)c2ccccc2)OCCCC[C@H](C)Oc2ccc(NC(=O)Nc3ccc4c(c3)OCO4)cc2C1=O [BRD-K43975729-001-01-5]	–	–	> 10	7	–
N#C[C@@H]1[C@H](c2ccccc2C2=CCCCC2)[C@H](CO)N1S(=O)(=O)c1ccccc1 [BRD-K90570429-001-01-9]	–	–	> 10	8	–
COc1ccc(-c2ccc([C@H]3[C@@H](C#N)N(C(=O)NC(C)C)[C@H]3CO)cc2)cc1 [BRD-K15519105-001-01-9]	–	–	> 10	38	–
CCCNC(=O)N1[C@H](C#N)[C@H](c2ccc(-c3ccccc3F)cc2)[C@@H]1CO [BRD-K81164606-001-02-5]	–	–	–	–	Tox_max_inhibition (%) [2]: 43%; IC50 (2nd round, unit inferred): > 10 µM
COc1ccc(S(=O)(=O)Nc2ccc3c(c2)C(=O)N([C@H](C)CO)C[C@@H](C)[C@@H](CN(C)S(=O)(=O)c2ccc(Cl)cc2)OCCCC[C@@H](C)O3)cc1 [BRD-K63849586-001-01-9]	–	–	–	–	Tox_max_inhibition (%) [2]: 13%; IC50 (2nd round, unit inferred): > 10 µM
N#C[C@@H]1[C@H](c2ccccc2)[C@H](CO)N1C(=O)Nc1cccc(F)c1 [BRD-K99496840-001-01-9]	> 10	4.23	–	–	–
C[C@@H]1CCCCO[C@@H](CN(C)Cc2ccc(Cl)c(Cl)c2)[C@@H](C)CN([C@@H](C)CO)C(=O)c2cc(NS(=O)(=O)c3cccs3)ccc2O1 [BRD-K97609851-001-01-5]	> 10	39	–	–	–
O=C(Nc1ccccc1F)N1CCCCN2[C@H](C1)[C@@H](c1ccc(/C=C/c3ccccc3)cc1)[C@@H]2CO [BRD-K41442469-001-01-2]	–	–	> 10	8.49	–
COc1ccccc1S(=O)(=O)N(C)C[C@@H]1Oc2cc(/C=C/c3ccccc3)ccc2S(=O)(=O)N([C@H](C)CO)C[C@H]1C [BRD-K26611181-001-01-8]	> 10	33	–	–	–
N#Cc1cccc(-c2ccc3c(c2)[C@H]2[C@H](CCN2S(=O)(=O)c2ccc(F)cc2)[C@@H](CO)N3)c1 [BRD-K73006286-001-01-7]	> 10	15	–	–	–
CCCNC(=O)N1[C@H](C#N)[C@H](c2ccccc2C2=CCCCC2)[C@@H]1CO [BRD-K29207675-001-01-5]	–	–	–	–	Tox_max_inhibition (%) [2]: 12%; IC50 (2nd round, unit inferred): > 10 µM
COc1cccc(S(=O)(=O)N2CCCCN3[C@@H](CO)[C@@H](c4ccc(C#CCC(C)C)cc4)[C@@H]3C2)c1 [BRD-K03006541-001-01-3]	–	–	> 10	5	–
C[C@H](CO)N1C[C@H](C)[C@H](CN(C)S(=O)(=O)c2ccc(C(F)(F)F)cc2)OCc2ccccc2-c2c(n(C)c3ccccc23)C1=O [BRD-K10380905-001-01-3]	> 10	20	–	–	–
CC(C)(C)[S+]([O-])N1Cc2cc(C(=O)NCc3ccc4c(c3)OCO4)nc(-c3cccc(-c4cc5ccccc5o4)c3)c2[C@H]1CCO (stereo partly shown) [BRD-K19560511-001-03-3]	–	–	–	–	Tox_max_inhibition (%) [2]: 12%; IC50 (2nd round, unit inferred): > 10 µM
CCCNC(=O)Nc1ccc2c(c1)OC[C@@H](C)N(Cc1ccccc1)C[C@@H](C)[C@H](OC)CN(C)C2=O [BRD-K76980944-001-01-4]	–	–	–	–	Tox_max_inhibition (%) [2]: 6%; IC50 (2nd round, unit inferred): > 10 µM
C[C@@H]1CCCCO[C@@H](CN(C)S(=O)(=O)c2ccccc2)[C@H](C)CN([C@H](C)CO)C(=O)c2cc(NC(=O)Nc3ccc4c(c3)OCO4)ccc2O1 [BRD-K87351697-001-01-4]	> 10	5	–	–	–
COc1cccc(-c2cccc(-c3nc(C(=O)NCc4ccc(Oc5ccccc5)cc4)cc4c3[C@@H](CCO)N([S+]([O-])C(C)(C)C)C4)c2)c1 (stereo partly shown) [BRD-K03403405-001-03-3]	> 10	6	–	–	–
CN1c2ccc(C#Cc3cccnc3)cc2[C@@H]2[C@@H](CCN2C(=O)c2cccc(F)c2)[C@@H]1CO [BRD-K18296007-001-01-0]	–	–	–	–	Tox_max_inhibition (%) [2]: 14%; IC50 (2nd round, unit inferred): > 10 µM
O=C(Nc1ccc(Cl)cc1)N1C[C@@H]2[C@H](c3ccccc31)[C@@H](CO)N2CC1CCCCC1 [BRD-K89605819-001-01-4]	–	–	> 10	4.75	–
CC(C)(C)[S@+]([O-])N1Cc2cc(C(=O)NCC(F)(F)F)nc(-c3cccc(-c4cccc(F)c4)c3)c2[C@@H]1CCO [BRD-K14002526-001-01-8]	–	–	> 10	37	–
COc1ccc2c3c([nH]c2c1)[C@H](CO)N(C(C)=O)CC31CCN(C(=O)Nc2ccc(F)cc2F)CC1 [BRD-K07378992-001-01-6]	–	–	> 10	7	–
CCCNC(=O)N1[C@H](C#N)[C@H](c2ccc(C#Cc3cccc(F)c3)cc2)[C@H]1CO [BRD-K31857539-001-01-9]	–	–	> 10	6	–
C[C@H](CO)N1C[C@H](C)[C@@H](CN(C)Cc2ccccc2)Oc2c(NC(=O)Cc3cn(C)c4ccccc34)cccc2C1=O [BRD-K71196168-001-01-1]	–	–	> 10	44	–
